pEC50, pIC50: −log10 of the molar value. “And” between values parts separate entries of the source, which are not always exact repeats. Equal entries are not always repeated. Where two headings read alike, the source gives them in different places.
Experiments:
Format in all cases: cell-based, human
[1] = system: CD34+ hematopoietic progenitor cells (erythroid colonies); experiment: Colony formation assay, erythroid colonies
Protocol: CD34^+ hematopoietic progenitor cells were isolated from PBMCs from two healthy donors using the CD34 Microbead Kit (Miltenyi Biotec, Auburn, Calif.). 10^3 CD34^+-enriched cells were cultured in a 35 mm culture plate (1000 cells/plate) with or without LMP-420 or fludarabine in 1.1 ml Human Methylcellulose Complete Media (R&D Systems) according to the manufacturer's protocol. Plates were incubated for 14 days at 37° C. in humidified 5% CO2. Each treatment group was tested in triplicate. Colonies on plates were scored by two independent observers, blinded to the treatment groups, by microscopic evaluation under 10× and 20× power. Colonies were categorized as being of either erythroid or myeloid lineage.

[2] = system: CD19-positive B-cell; experiment: Annexin V apoptosis of normal B-lymphocytes in PBMCs; conditions: 72 hours
Protocol: PBMCs were cultured at 10^6 cells/ml in a 12-well tissue culture plate. Cells were treated for 72 hours with vehicle control or drug for 72 hours, then harvested as above for staining. PBMCs were resuspended at 2×10^5 cells/tube in 100 μl buffer (HBSS, 0.5% bovine serum albumin, 0.1% sodium azide) and incubated for 30 min with CD3-FITC or CD19-FITC antibodies according to the manufacturer's protocol (BD Biosciences). Cells were then incubated with PE-annexin V and 7-AAD (BD Biosciences) in annexin V binding buffer (BD Biosciences) for 15 minutes prior to analysis of apoptosis on the Guava EasyCyte™ Plus system.

[3] = system: normal PBMCs; experiment: MTS cytotoxicity assay on PBMCs from normal donors
Protocol: For toxicity studies involving normal blood cells, normal volunteers were enrolled in an IRB-approved protocol for blood collection. PBMCs were isolated from heparin-anticoagulated blood by ficoll-Hypaque density gradient centrifugation.
2.5×10^5 CLL cells were incubated in triplicate or quadruplicate in a 96-well tissue culture plate (Costar, Corning, N.Y.) with serial dilutions of LMP-420, fludarabine, and/or recombinant TNF-alpha (R&D Systems, Minneapolis, Minn.) in Hybridoma serum free media (SFM) (GIBCO/Invitrogen, Carlsbad, Calif.) containing 10% heat-inactivated fetal bovine serum (FBS) (Sigma) at 37° C. with 5% CO2. After 72 hours, 20 μl CellTiter 96® AQueous One Solution Cell Proliferation Assay (Promega, Madison, Wis.) MTS (3-(4,5 dimethylthiazol-2-yl)-5-(3-carboxymethoxyphenyl-2-(4-sulfophenyl)-2H-tetrazolium) reagent was added to each well and the absorbance was read at 490 nm on a Thermomax microplate reader (Molecular Devices, Sunnyvale, Calif.). We calculated fractional cytotoxicity as performed previously (Reference 12), comparing absorbance at 490 nm from treated cells to control cells incubated with media alone.
The concentration effective at killing 50% of CLL cells compared to media alone (ED50) was calculated when 50% fractional cytotoxicity occurred within the range of serial dilutions tested (Reference 12). If the ED50 fell below or above this range, it was set to either the lowest or the highest concentration tested, respectively, for the purposes of statistical analyses and graphical representation.

[4] = system: CLL cells; experiment: Annexin V / 7-AAD apoptosis assay on CLL cells; conditions: for median percent drug-specific apoptosis: 72-hour; for median drug-specific apoptosis: n=43
Protocol: Cells were cultured in either of two different media: Hybridoma SFM with 10% FBS or RPMI 1640 medium (Sigma) supplemented with 5% heat-inactivated human AB serum (Sigma), 50 units/ml penicillin, 50 μg/ml streptomycin, 2 mM L-glutamine, 25 mM HEPES (N2-hydroxyethylpiperazine-N′-2-ethanesulfonic acid), 100 μM MEM non-essential amino acids, and 1 mM sodium pyruvate (GIBCO). CLL cell sensitivity to LMP-420 was not affected by culture media, as determined by direct comparison of the apoptotic effects observed in both media for seven samples. After drug activity in the presence of human AB serum was confirmed, further studies were performed in Hybridoma SFM with 10% FBS.
CLL cells were cultured at 2×10^6 cells/ml in a volume of 100 μl/well in a U-bottom 96-well tissue culture plate (BD Biosciences, San Jose, Calif.) with either vehicle control or with drug. After 24, 48, or 72 hours of incubation, cells were analyzed for apoptosis by three different methods. For the annexin-based assay, 100 μl of Guava Nexin Reagent (Millipore, Billerica, Mass.) was added for 20 min. Cells were analyzed for annexin V-PE and 7-AAD staining with flow cytometric analysis by the Guava EasyCyte™ Plus system (Millipore). To facilitate comparison of samples with different levels of spontaneous apoptosis, drug-specific apoptosis is reported. Drug-specific apoptosis excludes background spontaneous apoptosis and was calculated as follows: 100%×(drug-induced apoptosis−spontaneous apoptosis)/(100−spontaneous apoptosis) (Reference 13).

Nc1nc(Cl)c2ncn(CCCCCB(O)O)c2n1 [LMP-420, 2-amino-6-chloro-9-[5(dihydroxyboryl)-pentyl] purine]
erythroid colony IC50 relative to CLL ED50 [1]: greater than 40 fold
pIC50 ([1]; Homo sapiens, 336 h, 14 days, healthy donors (n=2), read-out: mean IC50 for normal erythroid colony formation): 5.00
average percent drug-specific apoptosis, B-cells ([2]; 1 μM, n=3): 11%
apoptosis in normal B-lymphocytes ([2]; concentrations up to 90 μM): did not induce significant apoptosis
potentiation of fludarabine cytotoxicity on normal PBMCs ([3]; 62 or 250 nM LMP-420 with fludarabine, 72 hours, n=3): did not potentiate
pEC50 ([3]; Homo sapiens, PBMC, 72 hours, MTS, not reached at up to 512 μM, read-out: median ED50 on normal PBMCs): < 3.29
EC50 ([3]; Homo sapiens, PBMC, mean, PBMCs from healthy blood donors (n = 3-6), read-out: ED50 (μM), PBMC): > 512 µM
median percent drug-specific apoptosis ([4]; 5,000 nM, mutated IgVH subgroup (n=30)): 34%
median percent drug-specific apoptosis ([4]; 5,000 nM, unmutated IgVH subgroup (n=10)): 59%
median drug-specific apoptosis ([4]; 5,000 nM, 24 hours): 15%
median drug-specific apoptosis ([4]; 5,000 nM, 48 hours): 28%
median drug-specific apoptosis ([4]; 5,000 nM, 72 hours): 32%
apoptosis, range ([4]; 5,000 nM, patients with 11q22 deletion or complex cytogenetics (n=3)): 13 to 58% and 13-58%
pEC50 ([4]; Homo sapiens, CLL cell, 72 hours, five-patient sample set, read-out: mean dose required for 50% drug-specific apoptosis by annexin V staining): 5.30
staining indicative of primary necrosis (7-AAD-positive, annexin-V-negative) ([4]; all samples, 72 hours): < 2%
samples in which apoptosis was induced (49 of 50) ([4]; highest dose (5,000 nM), 72 hours): 98%

From patent US20110319360A1, “Method of including apoptosis/Cell death in leukemia cell using a purine nucleoside analogue” (U.S. Department of Veterans Affairs, priority 2010, published 2011)
